Results taken from US6617124B1, “7-alkoxycoumarins as cytochrome p450 substrates” (SmithKline Beecham p.l.c., priority 1998, dated 2003).

Structure (SMILES)	melting point
CNCc1cc(=O)oc2cc(OC)ccc12	109 to 109.5 °C
COc1ccc2c(CN(C)C)cc(=O)oc2c1	97 °C
